In experiment [1] the test system is protein-associated 3-nitrotyrosine. Kind of experiment: Assay for protein-associated nitrotyrosine in hBMVECs. It counts as cell-based, human. The settings on record: thrombin 0.1 unit/ml 20 min; L-NIO or FeTPPS 10 μM pretreated 30 min; ELISA. As to the method:
Cell culture: Primary human brain microvascular endothelial cells (hBMVECs) were purchased from Angio-Proteomie (Cat #: cAP-0002, Atlanta, Ga.). The cells were cultured in cell culture flasks or plates precoated with Quick Coating Solution (Angio-Proteomie; Cat #: cAP-01) and maintained in Endothelial Growth Medium (Angio-Proteomie; Cat #: cAP-02) at 37° C. under 5% CO2/95% air. When the cells were almost confluent, the medium was replaced with endothelial basal medium (Angio-Proteomie; Cat #: cAP-03) containing 0.5% fetal bovine serum (FBS; Life Technologies, Grand Island, N.Y.) about 8-12 hours before the experiment. No institutional approval was required for this study. The study was not pre-registered.
Cellular levels of protein-associated 3-nitrotyrosine were analyzed by ELISA Kit (Abeam, Cat #: ab116691) and Western blot analysis using antibody specific to 3-nitrotyrosine (Abeam, Cat #: ab61392). For the ELISA, hBMVECs were lysed in extraction buffer provided with the kit followed by centrifugation at 16,000×g 4° C. The cell lysate supernatants were subjected to protein quantification with Bio-Rad DC protein assay kit (Bio-Rad, Hercules, Calif.) and the equal amounts of proteins (500 μg) were loaded onto 96 well microplate coated with 3-nitrotyrosine capture antibody and followed by incubation with biotin-conjugated 3-nitrotyrosine detector antibody. Following washing, the plates were incubated with HRP-conjugated streptoavidin and the levels of 3-nitrotyrosine were measured by incubation with 3,3′,5,5′-tetramethylbenzidine solution and colorimetric analysis at […] using SpectraMax 190 Microplate Reader (Molecular Devices, Sunnyvale, Calif.). For analysis of degree of RhoA tyrosine nitration, the cell lysates were immunoprecipiated with antibody specific to 3-nitrotyrosine (Abeam) and the levels of tyrosine nitrated RhoA were analyzed by Western analysis for RhoA.

For experiment [2], the system named is cell adhesion molecules (ICAM-1 and VCAM-1). The experiment can be described thus: Real-time PCR, mRNA expression of cell adhesion molecules in diabetic mice. It counts as in vivo. The settings on record: cortex and hippocampus, GSNO supplemented diabetic animals. As to the method:
Male laca mice weighing between 28-32 g were procured from the Central Animal House, Panjab University, Chandigarh. The animals were acclimatized and were fed with standard pellet diet and water ad libitum. The experimental protocols were approved by the Institutional Ethics Committee and were conducted according to Indian National Science Academy (INSA) guidelines for the use and care of experimental animals. […] Animals were assessed weekly for development of diabetic encephalopathy in terms of memory deficits. […]
PCR Total RNA was extracted from microvessels obtained from brain tissue using TriReagent®. […] The concentration of RNA obtained was determined by 260/280 nm ratio using a Nanodrop™ Spectrophotometer (Nanodrop™ 1000, Thermo Scientific®, Waltham, USA). The integrity and overall quality of RNA was evaluated using agarose gel electrophoresis. […] The data obtained was analyzed by the LightCycler 480 Software, Version 1.5. […] Glyceraldehyde-3-phosphate dehydrogenase was used as the reference gene and the relative gene expression was determined using delta-delta Ct method as described by Pfaffl et al., (2002).

`Cl.O=S(=O)([O-])c1ccc(-c2c3nc(c(-c4ccc(S(=O)(=O)O)cc4)c4ccc([nH]4)c(-c4ccc(S(=O)(=O)O)cc4)c4nc(c(-c5ccc(S(=O)(=O)O)cc5)c5ccc2[nH]5)C=C4)C=C3)cc1.[Fe]` [FeTPPS, 5,10,15,20-Tetrakis(4-sulfonatophenyl)porphyrinato Iron (III), Cl, reference compound]: the “thrombin-induced 3-nitrotyrosine levels” value in experiment [1] was “inhibited”.

Consider `N[C@@H](CCC(=O)N[C@@H](CSN=O)C(=O)NCC(=O)O)C(=O)O` [GSNO, S-nitrosoglutathione], for which the “mRNA expression of ICAM-1” value in experiment [2] was “comparable to control levels”.

The values are drawn from patent publication US10925858B2, “S-nitrosoglutathione (GSNO) and GSNO reductase inhibitors for use in therapy” (MUSC FOUNDATION FOR RESEARCH DEVELOPMENT, priority 2017, dated 2021).
